US7763615B2, “Ecteinascidin analogs for use as antitumour agents” (priority 2001, dated 2010)
Like-named read-outs stand apart in the source and are kept apart here.

Legend:
[1] = 60 min
Method: The measurement of partition coefficient was evaluated based on a miniaturized shake-flask procedure. Buffer (Dulbecco's PBS, pH 7.40) was used as the aqueous phase. The tested compound was dissolved in DMSO, at the concentration of 100 μM. The final DMSO concentration (1%.) during the octanol-buffer partitioning are very low to avoid bias on the partitioning. The amount of compound in the buffer phase was determined by HPLC with photodiode array detection after an equilibration phase of 60 min. The amount of compound in the octanol phase is calculated by subtraction of the amount of compound in buffer from the total amount of compound, which is determined from a calibration sample.
Log D is calculated as the Log10 of the amount of compound in the octanol phase divided by the amount of compound in the buffer phase. The effective range of the log D microassay is approximately −0.5 to +4.5.

[2] = system: FDC-P1, normal mouse myelogeous stem cells; details: 24 h
CYP2D6 [3] = target: T1, CYP2D6 (Homo sapiens, UniProt P10635); details: 450 min, 10 µM
Method: (§2) For CYP2D6 inhibition assay, the compound are tested at 10 μM in duplicate with a 0.25% final concentration of both methanol and acetonitrile in presence of the fluorescent substrate AMMC (3-[2-N,N-diethyl-N-methylammonium)ethyl]-7-methoxy-4-methylcoumarin) at the concentration of 1.5 μM). The conversion of the AMMC in AHMC (3-[2-N,N-diethyl-N-methylammonium)ethyl]-7-hydroxy-4-methylcoumarin) is determined spectrofluorimetry after incubation with the enzyme during 450 min at 37° C.
(§3) For both assays, the fluorescent intensity measured at t=0 is subtracted from that measured after the appropriate incubation time. The ratio of signal-to-noise is calculated by comparing the fluorescence in incubations containing the test compound to the control samples containing the same solvent vehicle. The percent of control activity is calculated and reported as percent inhibition.

[4] = system: NRK-52E, normal rat kidney cells; details: 24 h
Method: (§4) In order to assess the cytotoxicity of the drugs to normal cells, we used 96 well plates plated at a density of 5000 cells per well (except for the FDC-P1 which were plated at 12,000 cells per well) with normal cell lines (ATCC, Table 1) maintained as per the directions of the ATCC: AML-12, normal mouse liver cells; NRK-52E, normal rat kidney cells; L8, normal rat skeletal muscle cells; FDC-P1, normal mouse myelogeous stem cells; and H9c2 (2-1), normal rat cardiac muscle cells. The cells in each plate were permitted to settle overnight before adding the test drug.
(§5) To each well (100 μl medium) 10 μl of drug in media was added at varying concentrations (1×10-10-0.01 mg/ml final concentration) and further incubated overnight at 37° C. with 5% CO2. After 24 h the following assays were performed. All experiments were repeated at least 3 times and were assayed in duplicate.
(§6) MTS assay (CellTiter 96 aqueous) was performed according to the manufacturer's (Promega) directions (for all cell types). Cell viability (mitochondrial activity) is determined via enzymatic conversion of the formazan substrate.

[5] = system: AML-12, normal mouse liver cells; details: 24 h
Method: as §4, §5, §6

CYP3A4 = CYP3A4 (Homo sapiens, UniProt P08684); details: 30 min, 10 µM
Method: For CYP3A4 inhibition assay, the compound were tested at 10 μM in duplicate with a 0.25% final concentration of both methanol and acetonitrile in presence of the fluorescent substrate BFC (50 μM). The conversion of the BFC (7-benzyloxy-4-trifluoromethylcoumarin) in HFC (7-hydroxy-4-trifluoromethylcoumarin) was determined spectro-fluormetry after incubation with the enzyme during 30 min at 37° C.
as §3

K562 = test: cells; assay type: cell-based; details: for CC50: read-out: LC50
Method in brief: (§1)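 Absorbance at 490 nm of sulphorhodamine B bound by TCA-fixed cells gives the growth readout after 48 h continuous exposure to test samples (10 to 10^−8 μg/ml). Cells were seeded at 5×10^3 per well in RPMI 1640/10% FBS and allowed 18 h to attach first.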

DU145 = test: cells; assay type: cell-based; details: for CC50: read-out: LC50
Method in brief: as §1

LOVO-DOX = test: cells; assay type: cell-based; details: LOVO-DOX; for CC50: read-out: LC50
Method in brief: as §1

HT29 = test: cells; assay type: cell-based; details: for CC50: read-out: LC50
Method in brief: as §1

A549 = test: cells; assay type: cell-based; details: for GI50: read-out: GI50; for CC50: read-out: LC50
Method in brief: as §1

MEL-28 = test: cells; assay type: cell-based; details: for CC50: read-out: LC50
Method in brief: as §1

SK-BR3 = test: cells; assay type: cell-based; details: for CC50: read-out: LC50
Method in brief: as §1

IGROV = test: cells; assay type: cell-based
Method in brief: as §1

PANC-1 = test: cells; assay type: cell-based; details: for CC50: read-out: LC50
Method in brief: as §1

LOVO = test: cells; assay type: cell-based; details: LOVO; for CC50: read-out: LC50
Method in brief: as §1

IGROV-ET = test: cells; assay type: cell-based; details: IGROV-ET; for CC50: read-out: LC50
Method in brief: as §1

LNCAP = test: cells; assay type: cell-based; details: LNCAP; for CC50: read-out: LC50
Method in brief: as §1

[6] = s9, 60 min, 1 μM
SK-OV3 = test: Inhibition of cells growth by colorimetric assay (SRB), SK-OV3; assay type: cell-based; details: for CC50: read-out: LC50
Method in brief: as §1

(HEPG2) = details: human, 24 h, 30 μM
[7] = system: H9c2 (2-1), normal rat cardiac muscle cells; details: 24 h
[8] = system: L8, normal rat skeletal muscle cells; details: 24 h
H-MEC-1 = test: Inhibition of cells growth by colorimetric assay (SRB), H-MEC-1; assay type: cell-based; details: for CC50: read-out: LC50
Method in brief: as §1

CYP2D6 [9] = target: T1, CYP2D6; test: in vitro; details: CYP2D6 (% inhibition)
Method: as §2, §3

B16 melanoma = details: mice, U.S. Pat. No. 5,149,804; cited from earlier work
Lewis lung carcinoma = details: mice, U.S. Pat. No. 5,149,804; cited from earlier work
P388 lymphoma = details: mice, U.S. Pat. No. 5,149,804; cited from earlier work
[10] = H-MEC-1, 48 hours exposure, SRB

CYP3A4, sequence (P08684 whole entry): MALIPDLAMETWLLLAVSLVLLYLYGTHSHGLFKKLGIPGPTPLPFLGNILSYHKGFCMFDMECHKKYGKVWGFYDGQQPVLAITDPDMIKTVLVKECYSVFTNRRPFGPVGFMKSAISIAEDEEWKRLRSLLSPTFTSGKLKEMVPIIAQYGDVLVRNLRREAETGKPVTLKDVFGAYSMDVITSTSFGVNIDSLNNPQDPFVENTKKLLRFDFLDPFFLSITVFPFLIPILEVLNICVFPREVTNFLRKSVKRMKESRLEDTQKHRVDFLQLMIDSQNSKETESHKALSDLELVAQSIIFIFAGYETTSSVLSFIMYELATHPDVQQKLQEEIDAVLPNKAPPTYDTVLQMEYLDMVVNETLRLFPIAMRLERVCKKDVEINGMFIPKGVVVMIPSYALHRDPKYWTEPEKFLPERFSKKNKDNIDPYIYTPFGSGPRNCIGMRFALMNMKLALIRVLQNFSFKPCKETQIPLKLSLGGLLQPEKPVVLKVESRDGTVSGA
T1 sequence (P10635 whole entry): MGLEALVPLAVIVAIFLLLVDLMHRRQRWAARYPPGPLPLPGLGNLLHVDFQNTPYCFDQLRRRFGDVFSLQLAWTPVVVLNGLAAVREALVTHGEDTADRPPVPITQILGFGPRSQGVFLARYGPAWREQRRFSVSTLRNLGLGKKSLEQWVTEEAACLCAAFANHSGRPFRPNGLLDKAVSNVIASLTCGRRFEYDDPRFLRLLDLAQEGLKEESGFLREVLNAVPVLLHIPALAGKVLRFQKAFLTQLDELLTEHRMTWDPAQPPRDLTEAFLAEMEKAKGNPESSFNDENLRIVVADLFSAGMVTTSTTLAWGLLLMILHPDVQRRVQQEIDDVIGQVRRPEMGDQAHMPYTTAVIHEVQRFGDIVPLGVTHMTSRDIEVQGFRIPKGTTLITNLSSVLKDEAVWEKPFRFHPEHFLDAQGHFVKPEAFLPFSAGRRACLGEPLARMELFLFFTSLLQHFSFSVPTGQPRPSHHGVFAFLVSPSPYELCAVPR

With `COc1c(C)cc2c(c1O)[C@@H]1C3[C@@H]4SC[C@]5(NC(C)Cc6c5[nH]c5ccc(F)cc65)C(=O)COC[C@@H](c5c6c(c(C)c(OC(C)=O)c54)OCO6)N3[C@@H](O)[C@H](C2)N1C` (stereo partly shown) [Compound 42] as the compound, how does the “log D n-Octanol-Dulbecco's PBS pH 7.4” value [1] read?
Its value is >4.8.

And the Myelo [2]?
The Myelo was 6.41E−08.

And the “CYP2D6 (% inhibition)” value (CYP2D6 [3])?
The value was 19 % inhibition.

And the Kidney [4]?
Its Kidney is 1.12E−09.

What about the Liver [5] of the same compound?
Its Liver is 1.86E−07.

What about the “CYP3A4 (% inhibition)” value (CYP3A4) of the same compound?
The value was 78 % inhibition.

What about the GI50 (K562; K562, 48 hours exposure, SRB) of the same compound?
The GI50 was 4.77 nM.

And the TGI (K562; K562, 48 hours exposure, SRB)?
The TGI was 9.15E−09 Molar.

And the CC50 (K562; K562, 48 hours exposure, SRB)?
Its CC50 is 2810 nM.

And the GI50 (DU145; DU145, 48 hours exposure, SRB)?
Its GI50 is 3.51 nM.

And the TGI (DU145; DU145, 48 hours exposure, SRB)?
Its TGI is 7.97E−09 Molar.

What about the CC50 (DU145; DU145, 48 hours exposure, SRB) of the same compound?
Its CC50 is 12.7 nM.

And the GI50 (LOVO-DOX; 48 hours exposure, SRB)?
Its GI50 is 45.9 nM.

What about the TGI (LOVO-DOX; 48 hours exposure, SRB) of the same compound?
Its TGI is 2.05E−07 Molar.

And the CC50 (LOVO-DOX; 48 hours exposure, SRB)?
The CC50 was 12700 nM.

And the GI50 (HT29; HT29, 48 hours exposure, SRB)?
The GI50 was 34.1 nM.

What about the TGI (HT29; HT29, 48 hours exposure, SRB) of the same compound?
Its TGI is 1.42E−07 Molar.

And the CC50 (HT29; HT29, 48 hours exposure, SRB)?
Its CC50 is 12700 nM.

And the TGI (A549; A549, 48 hours exposure, SRB)?
The TGI was 4.09E−08 Molar.

And the GI50 (A549; A549, 48 hours exposure, SRB)?
The GI50 was 22 nM.

What about the CC50 (A549; A549, 48 hours exposure, SRB) of the same compound?
The CC50 was 75.9 nM.

And the GI50 (MEL-28; MEL-28, 48 hours exposure, SRB)?
Its GI50 is 0.404 nM.

What about the TGI (MEL-28; MEL-28, 48 hours exposure, SRB) of the same compound?
Its TGI is 9.77E−10 Molar.

And the CC50 (MEL-28; MEL-28, 48 hours exposure, SRB)?
The CC50 was 6.19 nM.

And the GI50 (SK-BR3; SK-BR3, 48 hours exposure, SRB)?
The GI50 was 6.63 nM.

And the TGI (SK-BR3; SK-BR3, 48 hours exposure, SRB)?
Its TGI is 2.44E−08 Molar.

What about the CC50 (SK-BR3; SK-BR3, 48 hours exposure, SRB) of the same compound?
The CC50 was 87.3 nM.

What about the GI50 (IGROV; 48 hours exposure, SRB) of the same compound?
The GI50 was 2.44 nM.

And the TGI (IGROV; 48 hours exposure, SRB)?
The TGI was 5.12E−09 Molar.

What about the CC50 (IGROV; read-out: LC50, 48 hours exposure, SRB) of the same compound?
The CC50 was 10.7 nM.

What about the GI50 (PANC-1; PANC-1, 48 hours exposure, SRB) of the same compound?
The GI50 was 16.9 nM.

What about the TGI (PANC-1; PANC-1, 48 hours exposure, SRB) of the same compound?
The TGI was 8.25E−08 Molar.

And the CC50 (PANC-1; PANC-1, 48 hours exposure, SRB)?
The CC50 was 12700 nM.

What about the GI50 (LOVO; 48 hours exposure, SRB) of the same compound?
Its GI50 is 13.5 nM.

And the TGI (LOVO; 48 hours exposure, SRB)?
The TGI was 4.37E−08 Molar.

What about the CC50 (LOVO; 48 hours exposure, SRB) of the same compound?
The CC50 was 127 nM.

And the GI50 (IGROV-ET; 48 hours exposure, SRB)?
The GI50 was 43.2 nM.

What about the TGI (IGROV-ET; 48 hours exposure, SRB) of the same compound?
Its TGI is 9.42E−08 Molar.

What about the CC50 (IGROV-ET; 48 hours exposure, SRB) of the same compound?
The CC50 was 12700 nM.

What about the GI50 (LNCAP; 48 hours exposure, SRB) of the same compound?
Its GI50 is 3.74 nM.

What about the TGI (LNCAP; 48 hours exposure, SRB) of the same compound?
The TGI was 6.61E−09 Molar.

What about the CC50 (LNCAP; 48 hours exposure, SRB) of the same compound?
Its CC50 is 11.7 nM.

And the “Human Liver S9 Metabolic Stability (% remaining)” value [6]?
The value was 5 % remaining.

What about the GI50 (SK-OV3; SK-OV3, 48 hours exposure, SRB) of the same compound?
Its GI50 is 7.37 nM.

What about the TGI (SK-OV3; SK-OV3, 48 hours exposure, SRB) of the same compound?
The TGI was 7.92E−07 Molar.

What about the CC50 (SK-OV3; SK-OV3, 48 hours exposure, SRB) of the same compound?
The CC50 was 12700 nM.

And the “Cell Viability (% inhibition)” value ((HEPG2))?
Its value is 67 % inhibition.

What about the Heart [7] of the same compound?
Its Heart is 1.42E−07.

What about the Skeletal [8] of the same compound?
The Skeletal was 3.37E−08.

What about the GI50 (H-MEC-1; [10]) of the same compound?
The GI50 was 40.4 nM.

And the TGI (H-MEC-1; [10])?
Its TGI is 2.47E−07 Molar.

What about the CC50 (H-MEC-1; [10]) of the same compound?
Its CC50 is 12700 nM.

What about the “Solubility Dulbecco's PBS pH 7.4” value of the same compound?
The value was 10.37 μM.

Which results are given for `COc1c(C)cc2c(c1O)[C@@H]1C3[C@@H]4SC[C@]5(NC(C)Cc6c5[nH]c5ccccc65)C(=O)COC[C@@H](c5c6c(c(C)c(OC(C)=O)c54)OCO6)N3[C@@H](O)[C@H](C2)N1C` (stereo partly shown) [Compound 44]?
log D n-Octanol-Dulbecco's PBS pH 7.4 [1]: >4.9; Myelo [2]: 1.21E−07; Kidney [4]: 4.15E−07; Liver [5]: 4.33E−07; CYP3A4 (% inhibition) (CYP3A4): 72 % inhibition; GI50 (K562; K562): 3.94 nM; TGI (K562; K562): 9.38E−09; CC50 (K562; K562): 107 nM; GI50 (DU145; DU145): 6.54 nM; TGI (DU145; DU145): 1.18E−08; CC50 (DU145; DU145): ≥ 13000 nM; GI50 (LOVO-DOX): 91 nM; TGI (LOVO-DOX): 8.53E−07; CC50 (LOVO-DOX): ≥ 13000 nM; GI50 (HT29; HT29): 59.8 nM; TGI (HT29; HT29): 4.59E−07; CC50 (HT29; HT29): ≥ 13000 nM; TGI (A549; A549): 4.76E−08; GI50 (A549; A549): 27.4 nM; CC50 (A549; A549): 82.3 nM; GI50 (MEL-28; MEL-28): 2.63 nM; TGI (MEL-28; MEL-28): 5.22E−09; CC50 (MEL-28; MEL-28): 10.3 nM; GI50 (SK-BR3; SK-BR3): 12.7 nM; TGI (SK-BR3; SK-BR3): 4.27E−08; CC50 (SK-BR3; SK-BR3): 177 nM; GI50 (IGROV): 4.29 nM; TGI (IGROV): 1.22E−08; CC50 (IGROV; read-out: LC50): 93 nM; GI50 (PANC-1; PANC-1): 56.7 nM; TGI (PANC-1; PANC-1): 1.55E−07; CC50 (PANC-1; PANC-1): ≥ 13000 nM; GI50 (LOVO): 27.1 nM; TGI (LOVO): 5.10E−08; CC50 (LOVO): 96.1 nM; GI50 (IGROV-ET): 28.5 nM; TGI (IGROV-ET): 7.06E−08; CC50 (IGROV-ET): 130 nM; GI50 (LNCAP): 4.3 nM; TGI (LNCAP): 8.84E−09; CC50 (LNCAP): 31.1 nM; Human Liver S9 Metabolic Stability (% remaining) [6]: 4 % remaining; GI50 (SK-OV3; SK-OV3): 37.5 nM; TGI (SK-OV3; SK-OV3): 1.31E−07; CC50 (SK-OV3; SK-OV3): ≥ 13000 nM; Cell Viability (% inhibition) ((HEPG2)): 73 % inhibition; Heart [7]: 5.20E−06; Skeletal [8]: 4.02E−08; GI50 (H-MEC-1; H-MEC-1): 75.3 nM; TGI (H-MEC-1; H-MEC-1): 1.31E−06; CC50 (H-MEC-1; H-MEC-1): ≥ 13000 nM; Solubility Dulbecco's PBS pH 7.4: 20.69 μM; inhibition at 450 min, 10 µM (CYP2D6 [9]): 16%

What does the source list for `COc1c(C)cc2c(c1O)[C@@H]1C3[C@@H]4SC[C@]5(NCCc6c5[nH]c5ccccc65)C(=O)OC[C@@H](c5c6c(c(C)c(OC(C)=O)c54)OCO6)N3[C@@H](O)[C@H](C2)N1C` (stereo partly shown) [Ecteinascidin 736, ecteinascidin 736]?
in vivo protection against B16 melanoma (B16 melanoma): protect mice in vivo at very low concentrations; in vivo protection against Lewis lung carcinoma (Lewis lung carcinoma): protect mice in vivo at very low concentrations; in vivo protection against P388 lymphoma (P388 lymphoma): protect mice in vivo at very low concentrations
